According to publication PMC6366710, “The structural basis of unique substrate recognition by Plasmodium thymidylate kinase: Molecular dynamics simulation and inhibitory studies” (PLoS ONE, 2019):

Target: T1, PfTMK (Plasmodium falciparum thymidylate kinase) (Plasmodium falciparum, UniProt Q8I4S1)
T1 construct: gene TMK; natural dimer
T1 sequence (Q8I4S1 1-210): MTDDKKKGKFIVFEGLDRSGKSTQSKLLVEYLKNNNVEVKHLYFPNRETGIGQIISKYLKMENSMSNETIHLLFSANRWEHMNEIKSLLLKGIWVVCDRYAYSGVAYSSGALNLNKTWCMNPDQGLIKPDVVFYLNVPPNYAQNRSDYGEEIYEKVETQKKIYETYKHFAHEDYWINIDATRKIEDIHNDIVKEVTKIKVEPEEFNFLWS
Assay: NADH-coupled (pyruvate kinase/lactate dehydrogenase) spectrophotometric TMP kinase assay, initial rates
Assay type: biochemical
Text: NADH-coupled (pyruvate kinase/lactate dehydrogenase) spectrophotometric TMP kinase assay, initial rates on PfTMK (Plasmodium falciparum thymidylate kinase)

Compound	Ki
Nc1nc2c(nc(O)n2[C@H]2C[C@H](O)[C@@H](CO)O2)c(=O)[nH]1 [8-Hydroxy-2'-deoxyguanosine]	180 µM
Nc1nc2c(ncn2[C@H]2C[C@H](O)[C@@H](CO)O2)c(=O)[nH]1 [deoxyguanosine]	270 µM
Nc1nc2c(ncn2[C@@H]2O[C@H](COP(=O)(O)OP(=O)(O)O[C@H]3O[C@H](CO)[C@@H](O)[C@H](O)[C@@H]3O)[C@@H](O)[C@H]2O)c(=O)[nH]1 [Guanosine diphosphate mannose]	> 1000 µM
Nc1ncn([C@H]2C[C@H](OP(=O)(O)OC[C@H]3O[C@@H](n4cnc5c(=O)[nH]c(N)nc54)C[C@@H]3O)[C@@H](CO)O2)c(=O)n1 [Guadecitabine]	90 µM
